According to US20230124862A1, “BISMUTH THIOL COMPOUNDS AND COMPOSITIONS AND METHODS OF TREATING MICROBIAL CO-INFECTIONS” (Microbion Corporation, priority 2020, published 2023):
Marks after values point to notes of the source that are not given here.

How the values were obtained:
Test in all cases: Antifungal broth microdilution (Example 13)
[1] = system: Candida auris; type: cell-based; conditions: 50% inhibition
[2] = system: Candida krusei; type: cell-based; conditions: 50% inhibition
[3] = system: Aspergillus spp.; type: cell-based, A. niger, A. terreus, A. fumigatus, A. flavus; conditions: minimum effective concentration
[4] = system: Candida glabrata; type: cell-based; conditions: 50% inhibition

MIC2 ([1]; C. auris MMX 9862, Susceptible): 0.12 µg/mL
MIC2 ([1]; C. auris MMX 9863, FLU-R, VORI-R): 0.12^b μg/mL
MIC2 ([1]; C. auris MMX 9864, FLU-R, VORI-R): 0.25^b μg/mL
MIC2 ([1]; C. auris MMX 9865, FLU-R, VORI-R): 0.25^b μg/mL
MIC2 ([1]; C. auris MMX 9866, FLU-R, VORI-R): 0.12^b μg/mL
MIC2 ([1]; C. auris MMX 9867, FLU-R, VORI-R): 0.12 µg/mL
MIC2 ([1]; C. auris MMX 9868, FLU-R, VORI-R): 0.25 µg/mL
MIC2 ([1]; C. auris MMX 9869, FLU-R, VORI-R): 0.25 µg/mL
MIC2 ([1]; C. auris MMX 9870, FLU-R, VORI-R): 0.25 µg/mL
MIC2 ([1]; C. auris MMX 9871, Susceptible): 0.25^b μg/mL
MIC2 ([2]; C. krusei ATCC 6258, MICA-I): 0.25 µg/mL
MIC2 ([2]; C. krusei ATCC 14243, Susceptible): 0.012 µg/mL
MIC2 ([2]; C. krusei ATCC 96685, Susceptible): 0.12 µg/mL
MIC2 ([2]; C. krusei MMX 7125, Susceptible): 0.25 µg/mL
MIC2 ([2]; C. krusei MMX 7128, Susceptible): 0.25 µg/mL
MIC2 ([2]; C. krusei MMX 7141, Susceptible): 0.25 µg/mL
MIC2 ([2]; C. krusei MMX 7153, MICA-R): 0.25 µg/mL
MIC2 ([2]; C. krusei MMX 7155, Susceptible): 0.25 µg/mL
MIC2 ([2]; C. krusei MMX 7563, Susceptible): 0.12 µg/mL
MIC2 ([2]; C. krusei MMX 9878, MICA-I, VORI-I): 0.25 µg/mL
MIC2 ([4]; C. glabrata ATCC 90030, Susceptible): 0.12 µg/mL
MIC2 ([4]; C. glabrata ATCC MYA-2950, Susceptible): 0.12 µg/mL
MIC2 ([4]; C. glabrata MMX 7087, Susceptible): 0.12 µg/mL
MIC2 ([4]; C. glabrata MMX 7093, FLU-R): 0.12 µg/mL
MIC2 ([4]; C. glabrata MMX 7101, FLU-R): 0.12 µg/mL
MIC2 ([4]; C. glabrata MMX 7103, CASP-R, MICA-R): >8 µg/mL
MIC2 ([4]; C. glabrata MMX 7111, Susceptible): 0.12 µg/mL
MIC2 ([4]; C. glabrata MMX 7285, CASP-R, MICA-R): 0.5 µg/mL
MIC2 ([4]; C. glabrata MMX 7307, CASP-R, MICA-R, FLU-R): >8 µg/mL
MIC2 ([4]; C. glabrata MMX 7549, Susceptible): 0.06 µg/mL
SMILES: CC[C@H](C)C[C@H](C)CCCCCCCCC(=O)N[C@H]1C[C@@H](O)[C@@H](NCCN)NC(=O)[C@@H]2[C@@H](O)CCN2C(=O)[C@H]([C@H](O)CCN)NC(=O)[C@H]([C@H](O)[C@@H](O)c2ccc(O)cc2)NC(=O)[C@@H]2C[C@@H](O)CN2C(=O)[C@H]([C@@H](C)O)NC1=O [CASP]
MEC ([3]; A. flavus ATCC 22546): 0.06 µg/mL
MEC ([3]; A. flavus ATCC 204304): 0.06 µg/mL
MEC ([3]; A. flavus MMX 7935): 0.03 µg/mL
MEC ([3]; A. fumigatus ATCC 204305): 0.25 µg/mL
MEC ([3]; A. fumigatus ATCC MYA-3626): 0.06 µg/mL
MEC ([3]; A. fumigatus MMX 5934): 0.12 µg/mL
MEC ([3]; A. fumigatus MMX 5938, 48 hr only, insufficient growth for 24 hr read): 0.12^b μg/mL
MEC ([3]; A. fumigatus MMX 5939): 0.12 µg/mL
MEC ([3]; A. niger ATCC 29508, 48 hr only, insufficient growth for 24 hr read): 0.06^b μg/mL
MEC ([3]; A. terreus MMX 8229, 48 hr only, insufficient growth for 24 hr read): 0.12^b μg/mL
